{
  "source": "patent EP0091185A2",
  "about": "“Berbane derivatives” (CHINOIN Gyogyszer és Vegyészeti Termékek Gyára RT., priority 1982, dated 1983)",
  "key": {"[1]": {"test_system": "CFLP strain female mice", "settings": "mouse, in vivo", "experimental": "These tests were carried out on CFLP strain female mice weighing 20-25 g by the rotating rod method [A. Kovach: Testing methods of experimental medical sciences - A kisérletes orvostudomany vizsgáló m6dszerei - Akad6mia kiad6, Budapest, VI. 232-233, 1962)]."}, "[2]": {"test_system": "CFY strain male rats", "assay": "Systolic blood pressure of non-anaesthetized rats, measured indirectly on the tail with a cuff", "assay_type": "in vivo", "settings": "for Blood pressure change related to the starting (control) value, 3rd hour / Blood pressure change related to the starting (control) value, 6th hour / Blood pressure change related to the starting (control) value, 12th hour / Blood pressure change related to the starting (control) value, 18th hour / Blood pressure change related to the starting (control) value, 24th hour / Blood pressure change related to the starting (control) value, 48th hour: n 5; for dose achieving hypotension of approximately the same intensity and duration: comparison of reserpine and the racemic compound, i.p.", "description": "The tests were carried. out on CFY strain male rats weighing 250-300 g. The systolic blood pressure was measured indirectly on the tails of the animals pressed down with the aid. of a cuff. […] The systolic blood pressure was determined by observing simultaneously the manometer and the out-signal."}, "[3]": {"test_system": "male rats weighing 300 and having hypertension", "assay": "Systolic blood pressure decrease by the optically active enantiomers in hypertensive rats", "assay_type": "in vivo", "settings": "intraperitoneal 20 mg/kg, sixth hour following administration (maximum of the effect)", "description": "The tests were carried. out on CFY strain male rats weighing 250-300 g. The systolic blood pressure was measured indirectly on the tails of the animals pressed down with the aid. of a cuff. When the pressure of the pressing cuff attached to a mercury manometer decreased just under the systolic pressure, the sensing head of the measuring apparatus (VP 101 microphone adapted for this purpose and placed on the tails of the rats) signalled the appearence of arterial pulsation both in acustical and visual way (oscilloscope). The systolic blood pressure was determined by observing simultaneously the manometer and the out-signal. When administering the raoemic compound intraperitoneally in doses of 10 and. […] The characteristics of the hypotensive effect of reserpine used as control are substantially the same as those of the racemic compound; hypotension of approximately the same intensity and duration can be achieved by administering 2,5 mg/kg of reserpine and 20 mg/kg of the racemic compound, respectively.\nThe optically active enantiomers were administered in intraperitoneal doses of 20 mg/kg to male rats weighing 300 and having hypertension. […]"}, "[4]": {"settings": "10 mg/kg i.p., n 5, control 115 ± 2"}, "[5]": {"settings": "20 mg/kg i.p., n 5, control 116 ± 2"}, "[6]": {"settings": "intraperitoneally 10 and 20 mg/kg"}, "[7]": {"settings": "2,5 mg/kg i.p., n 5, control 117 ± 2"}, "[8]": {"settings": "5,0 mg/kg i.p., n 5, control 118 ± 2"}},
  "data": [
    {"molecule": "COC(=O)[C@H]1C(=O)[C@@H](OC(=O)c2cc(OC)c(OC)c(OC)c2)C[C@@H]2CN3CCc4cc5c(cc4[C@H]3C[C@@H]21)OCO5", "note": "(racemic) [SC-T 40, Racemic methyl-7,8-methylened.ioxy-15-(3,4,5--trimethoxy-benzoyloxy)-14-oxo-epiallo--berbane-13-carboxylate]", "values": [
      {"measurement": "Time for which mice stayed on the rotating rod (average, n = 10)", "setting": "[1]", "result": "102 ± 12,0"},
      {"measurement": "effect on coordination", "setting": "[1]", "result": "did not exhibit any effect on coordination"},
      {"measurement": "Blood pressure change related to the starting (control) value, 3rd hour", "setting": "[2]; 10 mg/kg i.p.", "result": "-4,23%"},
      {"measurement": "Blood pressure (Hgmm; x̄ ± S.E.) 3rd hour", "setting": "[2]; [4]", "result": "110 ± 2", "unit": "Hgmm"},
      {"measurement": "Blood pressure change related to the starting (control) value, 6th hour", "setting": "[2]; 10 mg/kg i.p.", "result": "-13,88%"},
      {"measurement": "Blood pressure (Hgmm; x̄ ± S.E.) 6th hour", "setting": "[2]; [4]", "result": "99 ± 3", "unit": "Hgmm"},
      {"measurement": "Blood pressure change related to the starting (control) value, 12th hour", "setting": "[2]; 10 mg/kg i.p.", "result": "-12,14%"},
      {"measurement": "Blood pressure (Hgmm; x̄ ± S.E.) 12th hour", "setting": "[2]; [4]", "result": "101 ± 2", "unit": "Hgmm"},
      {"measurement": "Blood pressure change related to the starting (control) value, 18th hour", "setting": "[2]; 10 mg/kg i.p.", "result": "-9,53%"},
      {"measurement": "Blood pressure (Hgmm; x̄ ± S.E.) 18th hour", "setting": "[2]; [4]", "result": "104 ± 2", "unit": "Hgmm"},
      {"measurement": "Blood pressure change related to the starting (control) value, 24th hour", "setting": "[2]; 10 mg/kg i.p.", "result": "-9,64%"},
      {"measurement": "Blood pressure (Hgmm; x̄ ± S.E.) 24th hour", "setting": "[2]; [4]", "result": "104 ± 4", "unit": "Hgmm"},
      {"measurement": "Blood pressure change related to the starting (control) value, 48th hour", "setting": "[2]; 10 mg/kg i.p.", "result": "-9,53%"},
      {"measurement": "Blood pressure (Hgmm; x̄ ± S.E.) 48th hour", "setting": "[2]; [4]", "result": "104 ± 2", "unit": "Hgmm"},
      {"measurement": "Blood pressure change related to the starting (control) value, 3rd hour", "setting": "[2]; 20 mg/kg i.p.", "result": "-7,98%"},
      {"measurement": "Blood pressure (Hgmm; x̄ ± S.E.) 3rd hour", "setting": "[2]; [5]", "result": "107 ± 2", "unit": "Hgmm"},
      {"measurement": "Blood pressure change related to the starting (control) value, 6th hour", "setting": "[2]; 20 mg/kg i.p.", "result": "-19,53%"},
      {"measurement": "Blood pressure (Hgmm; x̄ ± S.E.) 6th hour", "setting": "[2]; [5]", "result": "93 ± 6", "unit": "Hgmm"},
      {"measurement": "Blood pressure change related to the starting (control) value, 12th hour", "setting": "[2]; 20 mg/kg i.p.", "result": "-17,11%"},
      {"measurement": "Blood pressure (Hgmm; x̄ ± S.E.) 12th hour", "setting": "[2]; [5]", "result": "96 ± 2", "unit": "Hgmm"},
      {"measurement": "Blood pressure change related to the starting (control) value, 18th hour", "setting": "[2]; 20 mg/kg i.p.", "result": "-12,76%"},
      {"measurement": "Blood pressure (Hgmm; x̄ ± S.E.) 18th hour", "setting": "[2]; [5]", "result": "101 ± 3", "unit": "Hgmm"},
      {"measurement": "Blood pressure change related to the starting (control) value, 24th hour", "setting": "[2]; 20 mg/kg i.p.", "result": "-9,42%"},
      {"measurement": "Blood pressure (Hgmm; x̄ ± S.E.) 24th hour", "setting": "[2]; [5]", "result": "105 ± 2", "unit": "Hgmm"},
      {"measurement": "Blood pressure change related to the starting (control) value, 48th hour", "setting": "[2]; 20 mg/kg i.p.", "result": "-4,23%"},
      {"measurement": "Blood pressure (Hgmm; x̄ ± S.E.) 48th hour", "setting": "[2]; [5]", "result": "111 ± 1", "unit": "Hgmm"},
      {"measurement": "dose achieving hypotension of approximately the same intensity and duration", "setting": "[2]", "result": 20, "unit": "mg/kg"},
      {"measurement": "duration of the hypotensive effect", "setting": "[2]; [6]", "result": "still detected in the 48th hour"},
      {"measurement": "time at which the hypotensive effect reached its maximum", "setting": "[2]; [6]", "result": "sixth hour"},
      {"measurement": "hypotensive effect", "setting": "[2]; intraperitoneally 10 and 20 mg/kg, 3-6 hours after the administration", "result": "significant hypotensive effect"}
    ]},
    {"molecule": "COC(=O)[C@H]1[C@H]2C[C@@H]3c4[nH]c5cc(OC)ccc5c4CCN3C[C@H]2C[C@@H](OC(=O)c2cc(OC)c(OC)c(OC)c2)[C@@H]1OC", "note": "[RESERPINE, reserpine, reference compound]", "values": [
      {"measurement": "Time for which mice stayed on the rotating rod (average, n = 10)", "setting": "[1]", "result": "9 ± 3,3"},
      {"measurement": "effect on coordination", "setting": "[1]", "result": "roduced coordination to a very significatn extent"},
      {"measurement": "Blood pressure change related to the starting (control) value, 3rd hour", "setting": "[2]; 2,5 mg/kg i.p.", "result": "-11,11%"},
      {"measurement": "Blood pressure (Hgmm; x̄ ± S.E.) 3rd hour", "setting": "[2]; [7]", "result": "104 ± 2", "unit": "Hgmm"},
      {"measurement": "Blood pressure change related to the starting (control) value, 6th hour", "setting": "[2]; 2,5 mg/kg i.p.", "result": "-18,8%"},
      {"measurement": "Blood pressure (Hgmm; x̄ ± S.E.) 6th hour", "setting": "[2]; [7]", "result": "95 ± 2", "unit": "Hgmm"},
      {"measurement": "Blood pressure change related to the starting (control) value, 12th hour", "setting": "[2]; 2,5 mg/kg i.p.", "result": "-9,4%"},
      {"measurement": "Blood pressure (Hgmm; x̄ ± S.E.) 12th hour", "setting": "[2]; [7]", "result": "106 ± 2", "unit": "Hgmm"},
      {"measurement": "Blood pressure change related to the starting (control) value, 18th hour", "setting": "[2]; 2,5 mg/kg i.p.", "result": "-12,82%"},
      {"measurement": "Blood pressure (Hgmm; x̄ ± S.E.) 18th hour", "setting": "[2]; [7]", "result": "102 ± 1", "unit": "Hgmm"},
      {"measurement": "Blood pressure change related to the starting (control) value, 24th hour", "setting": "[2]; 2,5 mg/kg i.p.", "result": "-10,26%"},
      {"measurement": "Blood pressure (Hgmm; x̄ ± S.E.) 24th hour", "setting": "[2]; [7]", "result": "105 ± 3", "unit": "Hgmm"},
      {"measurement": "Blood pressure change related to the starting (control) value, 48th hour", "setting": "[2]; 2,5 mg/kg i.p.", "result": "-6,48%"},
      {"measurement": "Blood pressure (Hgmm; x̄ ± S.E.) 48th hour", "setting": "[2]; [7]", "result": "109 ± 2", "unit": "Hgmm"},
      {"measurement": "Blood pressure change related to the starting (control) value, 3rd hour", "setting": "[2]; 5,0 mg/kg i.p.", "result": "-15,25%"},
      {"measurement": "Blood pressure (Hgmm; x̄ ± S.E.) 3rd hour", "setting": "[2]; [8]", "result": "100 ± 5", "unit": "Hgmm"},
      {"measurement": "Blood pressure change related to the starting (control) value, 6th hour", "setting": "[2]; 5,0 mg/kg i.p.", "result": "-19,49%"},
      {"measurement": "Blood pressure (Hgmm; x̄ ± S.E.) 6th hour", "setting": "[2]; [8]", "result": "95 ± 7", "unit": "Hgmm"},
      {"measurement": "Blood pressure change related to the starting (control) value, 12th hour", "setting": "[2]; 5,0 mg/kg i.p.", "result": "-13,56%"},
      {"measurement": "Blood pressure (Hgmm; x̄ ± S.E.) 12th hour", "setting": "[2]; [8]", "result": "102 ± 1", "unit": "Hgmm"},
      {"measurement": "Blood pressure change related to the starting (control) value, 18th hour", "setting": "[2]; 5,0 mg/kg i.p.", "result": "-8,47%"},
      {"measurement": "Blood pressure (Hgmm; x̄ ± S.E.) 18th hour", "setting": "[2]; [8]", "result": "108 ± 2", "unit": "Hgmm"},
      {"measurement": "Blood pressure change related to the starting (control) value, 24th hour", "setting": "[2]; 5,0 mg/kg i.p.", "result": "-10,17%"},
      {"measurement": "Blood pressure (Hgmm; x̄ ± S.E.) 24th hour", "setting": "[2]; [8]", "result": "106 ± 3", "unit": "Hgmm"},
      {"measurement": "Blood pressure change related to the starting (control) value, 48th hour", "setting": "[2]; 5,0 mg/kg i.p.", "result": -5.93, "unit": "%"},
      {"measurement": "Blood pressure (Hgmm; x̄ ± S.E.) 48th hour", "setting": "[2]; [8]", "result": "111 ± 2", "unit": "Hgmm"},
      {"measurement": "dose achieving hypotension of approximately the same intensity and duration", "setting": "[2]", "result": "2,5 mg/kg"}
    ]},
    {"molecule": "(+)-Methyl-7,8-methylenedioxy-15-(3,4,5--trimethoxy-benzoyloxy)-l4-oxo-epiallo--berbane-13-carboxylate [[(+), I]]", "values": [
      {"measurement": "blood-pressure decrease (average, n = 6)", "setting": "[3]", "result": "15,6 Hgmm"}
    ]},
    {"molecule": "(-)-Methyl-7,8-methylenedioxy-15-(3,4,5--trimethoxy-benzoyloxy)-14-oxo-epiallo--berbane-13-carboxylate [[(-), I]]", "values": [
      {"measurement": "blood-pressure decrease (average, n = 6)", "setting": "[3]", "result": "14,8 Hgmm"}
    ]}
  ]
}
